Tests used:
HT29 cell line = test: Anti-proliferative assay (MTS/CCK-8), HT29; assay type: cell-based; conditions: Homo sapiens, HT-29; HT29 (colon cancer) cells, 100 ng/mL IGF without FCS, 72 hours; read-out: Anti-proliferation IC50 (μM) HT29 cell line
Description: (§1) Anti-proliferative potential of compounds was tested using various cell lines (details provided in Table 2) by MTS (Promega, Cat # G1111), a tetrazolium compound ((3-(4,5-dimethylthiazol-2-yl)-5-(3-carboxymethoxyphenyl)-2-(4-sulphophenyl)-2H-tetrazolium, inner salt; MTS) and Cell Counting kit-8 (CCK-8 a Dojindo's highly water-soluble tetrazolium salt of WST-8 [2-(2-methoxy-4-nitrophenyl)-3-(4-nitrophenyl)-5-(2,4-disulfophenyl)-2H-tetrazolium, monosodium salt]). MTS is a colorimetric assay for determining the number of viable cells in proliferation, cytotoxicity or chemosensitivity assays. This is used with an electron coupling reagent PMS (Phenazine methosulfate). MTS is bioreduced by cells into a formazan that is soluble in tissue culture medium. The absorbance of the formazan at 490 nm can be measured directly from 96 well assay plates without additional processing. Dehydrogenase enzymes found in metabolically active cells accomplish the conversion of MTS into the aqueous soluble formazan. The quantity of formazan product is directly proportional to the number of living cells in culture. In CCK-8, WST-8 is reduced by dehydrogenases in cells to give a yellow colored product formazan, which is measured at 450 nm.
(§2) For experimental purposes, cells were seeded at a density of 3000-5000 cells per well in 180 μL/well volume in transparent 96 well tissue culture plate (NUNC, USA) and incubated overnight at 37° C., 5% CO2. […] Plates were incubated for 3-4 hours and absorbance was measured at 490 nm on Spectrophotometer (SpectraMax, Molecular Devices). Percentage cytotoxicity and IC50 was calculated using SoftMax software. […] After 4 hour incubation, the absorbance was determined at 450 nm using Spectrophotometer (SpectraMax, Molecular Devices). […]

human IGF-1R = target: T1, human IGF-1R (Homo sapiens, UniProt P08069); test: In vitro IGF-1R kinase assay (HTRF); assay type: biochemical; conditions: intracellular kinase domain GST fusion, ATP 20 μM, 1 hour at 23° C., read-out: IGFIR-Activity
T1 construct: IGFRK and IRK enzyme used for the assay was intracellular kinase domain of human IGF-1R and human IR; made in house
Description: The in vitro kinase assays using IGF-1R and IR kinase GST fusion proteins were conducted using a homogeneous time-resolved fluorescence (HTRF) format. […] The standard enzyme reaction buffer consisted of 50 mM Tris HCL (pH: 7.4), 1 mM EGTA, 10 mM MgCl2, 2 mM DTT, 0.01% Tween-20, IGF-1R/IR kinase enzyme, poly GT peptide substrate (Perkin Elmer [Ulight Glu-Tyr (4:1)]n) and ATP [concentration equivalent to Kmapp]. […] Briefly, 2.5 μL enzyme and 2.5 μL inhibitor was pre-incubated for 10 minutes at 23° C. followed by the addition of 2.5 μL of poly GT substrate (final concentration of 50 nM). Reaction was initiated with the addition of 2.5 μL of ATP (final concentration of 20 μM for IGF-1R assay and 10 μM for IR assay). After 1 hour incubation at 23° C., the kinase reaction was stopped with the addition of 5 μL EDTA (final concentration of 10 mM in 20 μL). Europium cryptate—labeled antiphosphotyrosine antibody PY20 (5 μL) was added (final concentration of 2 nM) and the mixture was allowed to equilibrate for 1 hour at 23° C. followed by reading the plate in an Envision plate reader. The intensity of light emission at 665 nm was directly proportional to the level of substrate phosphorylation. The IC50 values for inhibitors were determined by a four-parameter sigmoidal curve fit (Sigma plot or Graph pad).
IGFRK and IRK enzyme used for the assay was intracellular kinase domain of human IGF-1R and human IR cloned and expressed as GST fusion proteins using the baculovirus expression system and purified using glutathione—Sepharose column.

MCF7 cell line = test: Anti-proliferative assay (MTS/CCK-8), MCF7; assay type: cell-based; conditions: Homo sapiens; MCF7 (breast cancer) cells, 100 ng/mL IGF without FCS, 72 hours; read-out: Anti-proliferation IC50 (μM) MCF7 cell line
Description: as §1, §2

CYP3A4 = target: T2, CYP3A4 (Homo sapiens, UniProt P08684); test: CYP inhibition fluorescence assay (rhCYP450, Vivid Invitrogen kit); assay type: in vitro ADME; conditions: recombinant human CYP3A4, 10 μM compound, read-out: % inhibition of CYP 3A4 at 10 μM
T2 construct: purchased Invitrogen (Vivid screening kits)
Description: The % inhibition @ 10 μM data was generated from an rhCYP450/fluorescence assay according to the Vivid Invitrogen screening kits. The compounds were screened against CYP 3A4 isoform because CYP3A4 is responsible for the metabolism of approximately 50-60% of clinical drugs. The lower the percentage inhibition, the lower the CYP450 inhibitory liability of that specific compound.

T1 sequence (P08069 999-1274 limits assumed): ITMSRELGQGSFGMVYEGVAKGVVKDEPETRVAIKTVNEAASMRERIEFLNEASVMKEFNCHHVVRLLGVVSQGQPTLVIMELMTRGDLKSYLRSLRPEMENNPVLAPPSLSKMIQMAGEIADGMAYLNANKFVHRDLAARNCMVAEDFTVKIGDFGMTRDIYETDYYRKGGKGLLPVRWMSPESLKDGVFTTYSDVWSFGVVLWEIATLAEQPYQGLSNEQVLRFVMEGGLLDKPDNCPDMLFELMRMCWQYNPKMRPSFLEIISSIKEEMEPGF
T2 sequence (P08684 whole entry): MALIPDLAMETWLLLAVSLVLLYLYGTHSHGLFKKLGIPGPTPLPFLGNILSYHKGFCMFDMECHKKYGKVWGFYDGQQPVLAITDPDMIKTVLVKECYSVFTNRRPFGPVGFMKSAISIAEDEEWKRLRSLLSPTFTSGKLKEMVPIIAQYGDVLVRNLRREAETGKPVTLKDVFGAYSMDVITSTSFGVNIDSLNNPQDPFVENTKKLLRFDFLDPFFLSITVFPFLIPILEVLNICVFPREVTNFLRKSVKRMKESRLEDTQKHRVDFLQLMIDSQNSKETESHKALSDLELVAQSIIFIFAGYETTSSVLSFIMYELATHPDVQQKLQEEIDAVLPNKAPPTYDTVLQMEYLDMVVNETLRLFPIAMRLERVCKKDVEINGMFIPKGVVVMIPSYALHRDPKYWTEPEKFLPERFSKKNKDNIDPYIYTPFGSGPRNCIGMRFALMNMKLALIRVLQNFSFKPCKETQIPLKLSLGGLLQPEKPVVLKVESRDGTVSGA

Row | IC50 (HT29 cell line) [µM] | IC50 (human IGF-1R) [nM] | IC50 (MCF7 cell line) [µM] | inhibition at 10 µM (CYP3A4) [%] | Structure (SMILES)
1 | 5.3 | 16 | < 1 | – | N#CCCNc1cc(Cl)cc2c(S(=O)(=O)N3CCO[C@H](COc4ccccc4)C3)c(C(N)=O)[nH]c12 [Compound 19, (S)-5-chloro-7-(2-cyanoethylamino)-3-(2-(phenoxymethyl)morpholinosulfonyl)-1H-indole-2-carboxamide]
2 | 2.8 | < 100 | 0.8 | – | NC(=O)c1[nH]c2c(NC3CCOCC3)cc(Cl)cc2c1S(=O)(=O)N1CCO[C@H](COc2ccccc2)C1 [Compound 20, (S)-5-chloro-3-(2-(phenoxymethyl)morpholinosulfonyl)-7-(tetrahydro-2H-pyran-4-ylamino)-1H-indole-2-carboxamide]
3 | 1.7 | 68.5 | 0.9 | 47 | CCOC(=O)N1CCC(Nc2cc(Cl)cc3c(S(=O)(=O)N4CCO[C@H](COc5ccccc5)C4)c(C(N)=O)[nH]c23)CC1 [Compound 34, (S)-ethyl 4-(2-carbamoyl-5-chloro-3-(2-(phenoxymethyl)morpholinosulfonyl)-1H-indol-7-ylamino)piperidine-1-carboxylate]
